Data on 25 compounds can be found in PMC10647861, “New Thiazolyl-Pyrazoline Derivatives as Potential Dual EGFR/HER2 Inhibitors: Design, Synthesis, Anticancer Activity Evaluation and In Silico Study” (Molecules, 2023).

The term IC50 denotes the midpoint of a concentration-inhibition curve. One may read the melting point as the temperature of the solid-liquid transition.

Data set [1] has as its system MCF-7. The data set can be described thus: MTT anti-proliferative assay toward MCF-7. Conditions: Homo sapiens, MCF7, 48 h, read-out: IC50 toward MCF-7. Background: Formazan colour is commonly taken as a measure of viable cells.
Protocol: Anti-proliferative activities were done using the MTT colorimetric assay [58]. Cell viability was assessed after 48 h, and the viability was calculated relative to the control [59]
Experimental of biological evaluations
Anti-proliferative activities were done using MTT colorimetric assay.
Both cell lines were provided with 10% fetal bovine serum (FBS, Sigma-Aldrich, MO, USA) and 1% penicillin-streptomycin (Lonza, Belgium). Cells were incubated following standard tissue culture work. Cell viability was assessed after 48 h using MTT solution (Promega, USA). Absorbance was subsequently measured (at 570 nm) using ELISA microplate reader (BIO-RAD, model iMark, Japan). The viability was calculated relative to control.
EGFR and HER2 enzyme inhibition
(§1) Measurement of potential EGFR/ HER2 inhibitory activities was performed using EGFR
(§2) following equation was used to determine the proportion of autophosphorylation inhibition by
concentrations for each compound.
Cell cycle analysis and apoptotic assay
MCF-7 cells were seeded into 6-well culture plates (3-5× 10^5 cells/well) and incubated
48 h. Subsequently, cells and medium supernatants were gathered and washed with ice-cold PBS.
The cells were then suspended in 100 µL of the annexin binding buffer solution, which was described as "25 mM CaCl 2, 1.4 M NaCl, and 0.1 M Hepes/NaOH, pH 7.4”. The cell incubation and addition of Annexin V-FITC solution, and propidium iodide (PI) were done according to the reported procedure. Next, the Cytoflex FACS equipment was used to obtain the stained cells. The program CytExpert was used to analyze the data.
The test system of the next data set is MCF-7 cells. Description: Annexin V/PI apoptosis analysis in MCF-7. Format: cell-based. The following applies: MCF-7, compound at its IC50, 48 h.
The target of the next data set is EGFR Kinase (Homo sapiens, UniProt P00533). The data set can be described thus: EGFR kinase inhibitory assay (BPS Bioscience kit).
The test system of data set [2] is MCF-7. Description: Cell cycle analysis in MCF-7. The class given is cell-based. Conditions: for DNA Content %G0-G1 / DNA Content %G2/M / DNA Content %S: MCF-7, compound at its IC50, 48 h.
A further data set concerns the target HER2 Kinase (Homo sapiens, UniProt P04626). The data set can be described thus: HER2 kinase inhibitory assay (BPS Bioscience kit).
The test system of the next data set is MCF-10A. The data set can be described thus: MTT cytotoxicity assay toward MCF-10A. The following applies: Homo sapiens, 48 h. Format: cell-based.
Data set [3] relates to MCF-7. Conditions: cited from earlier work.
The next data set has as its system HER2. Conditions: cited from earlier work.
The test system of a further data set is A549. More on the design: method as in PMID 21802290. Conditions: cited from earlier work.
The test system of the next data set is EGFR. Conditions: cited from earlier work.
The next data set has as its system T-47D cell line. More on the design: method as in PMID 37049966. The following applies: cited from earlier work.

Where two headings read alike, the source gives them in different places.

Chain of HER2 Kinase (P04626 23-1255): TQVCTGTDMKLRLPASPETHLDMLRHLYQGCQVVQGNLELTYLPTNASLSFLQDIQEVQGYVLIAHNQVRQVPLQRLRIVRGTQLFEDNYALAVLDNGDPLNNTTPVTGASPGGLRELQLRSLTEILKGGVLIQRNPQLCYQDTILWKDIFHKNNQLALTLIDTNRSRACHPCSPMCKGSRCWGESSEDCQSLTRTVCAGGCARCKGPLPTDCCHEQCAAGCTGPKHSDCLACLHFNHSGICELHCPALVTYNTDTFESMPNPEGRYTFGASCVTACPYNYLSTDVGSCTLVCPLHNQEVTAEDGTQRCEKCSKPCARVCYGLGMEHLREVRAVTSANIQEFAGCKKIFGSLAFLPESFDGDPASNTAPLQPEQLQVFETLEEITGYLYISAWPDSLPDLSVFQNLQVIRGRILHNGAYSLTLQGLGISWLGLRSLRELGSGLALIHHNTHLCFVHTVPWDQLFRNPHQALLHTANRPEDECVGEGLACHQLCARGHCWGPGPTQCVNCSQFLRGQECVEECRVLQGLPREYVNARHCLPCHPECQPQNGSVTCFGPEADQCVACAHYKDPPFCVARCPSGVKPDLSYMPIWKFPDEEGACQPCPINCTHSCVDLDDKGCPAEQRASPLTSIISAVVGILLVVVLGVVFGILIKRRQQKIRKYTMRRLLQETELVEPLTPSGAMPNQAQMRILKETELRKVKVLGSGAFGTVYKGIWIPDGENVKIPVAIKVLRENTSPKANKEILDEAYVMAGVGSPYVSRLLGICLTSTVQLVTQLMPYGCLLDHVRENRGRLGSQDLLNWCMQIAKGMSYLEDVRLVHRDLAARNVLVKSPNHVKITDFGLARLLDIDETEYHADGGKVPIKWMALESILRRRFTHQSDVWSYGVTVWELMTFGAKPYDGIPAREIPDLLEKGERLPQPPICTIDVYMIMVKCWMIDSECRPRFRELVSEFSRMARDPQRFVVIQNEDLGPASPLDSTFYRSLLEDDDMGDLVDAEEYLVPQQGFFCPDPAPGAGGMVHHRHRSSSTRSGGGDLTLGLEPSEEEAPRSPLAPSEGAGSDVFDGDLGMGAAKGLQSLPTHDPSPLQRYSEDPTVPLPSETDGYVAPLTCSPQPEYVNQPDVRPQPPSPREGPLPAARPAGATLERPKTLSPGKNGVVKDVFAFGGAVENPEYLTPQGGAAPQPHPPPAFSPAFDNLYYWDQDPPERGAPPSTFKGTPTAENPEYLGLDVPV
Chain of EGFR Kinase (P00533 25-1210): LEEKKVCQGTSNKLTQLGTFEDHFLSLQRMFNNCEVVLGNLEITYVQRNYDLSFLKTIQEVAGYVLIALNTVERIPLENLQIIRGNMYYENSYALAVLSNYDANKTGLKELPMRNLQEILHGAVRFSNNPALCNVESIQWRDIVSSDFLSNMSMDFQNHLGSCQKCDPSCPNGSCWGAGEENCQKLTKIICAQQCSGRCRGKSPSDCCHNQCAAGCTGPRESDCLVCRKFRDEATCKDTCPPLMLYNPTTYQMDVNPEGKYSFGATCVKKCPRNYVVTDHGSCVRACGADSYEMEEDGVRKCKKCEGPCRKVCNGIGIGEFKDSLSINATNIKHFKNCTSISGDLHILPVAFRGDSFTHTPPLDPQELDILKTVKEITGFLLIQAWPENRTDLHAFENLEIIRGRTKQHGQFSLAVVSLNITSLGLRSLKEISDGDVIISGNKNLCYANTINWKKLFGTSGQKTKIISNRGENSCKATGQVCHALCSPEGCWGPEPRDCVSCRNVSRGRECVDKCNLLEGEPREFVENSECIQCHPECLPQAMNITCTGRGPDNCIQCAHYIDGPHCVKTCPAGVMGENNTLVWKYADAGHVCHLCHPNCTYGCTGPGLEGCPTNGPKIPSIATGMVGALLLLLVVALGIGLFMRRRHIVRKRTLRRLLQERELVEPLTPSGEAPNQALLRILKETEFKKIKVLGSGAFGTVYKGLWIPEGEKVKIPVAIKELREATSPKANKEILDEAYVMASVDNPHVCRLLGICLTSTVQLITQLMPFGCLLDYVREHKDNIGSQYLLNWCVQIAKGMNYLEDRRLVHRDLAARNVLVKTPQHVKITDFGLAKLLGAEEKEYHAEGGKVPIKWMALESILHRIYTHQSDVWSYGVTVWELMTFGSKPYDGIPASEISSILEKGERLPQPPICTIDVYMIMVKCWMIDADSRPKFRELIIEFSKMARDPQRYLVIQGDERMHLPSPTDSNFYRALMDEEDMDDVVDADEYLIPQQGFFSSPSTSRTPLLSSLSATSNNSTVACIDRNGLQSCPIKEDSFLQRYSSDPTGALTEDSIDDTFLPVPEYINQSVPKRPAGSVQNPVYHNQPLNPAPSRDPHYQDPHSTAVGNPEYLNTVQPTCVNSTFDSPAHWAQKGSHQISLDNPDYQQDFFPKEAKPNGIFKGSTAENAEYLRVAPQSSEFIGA
Protocol for EGFR Kinase: Experimental of biological evaluations
EGFR and HER2 enzyme inhibition
as §1, §2
concentrations for each compound.
Protocol for HER2 Kinase: Experimental of biological evaluations
EGFR and HER2 enzyme inhibition
as §1, §2
concentrations for each compound.

Compound `COc1ccc(C2CC(c3ccc(OC)c(OC)c3)=NN2c2nc(C)c(N=Nc3ccc(Cl)cc3)s2)cc1` (centres unmarked) [Compound 4a, 5-((4-Chlorophenyl)diazenyl)-2-(3-(3,4-dimethoxyphenyl)-5-(4-methoxyphenyl)-4,5-dihydro-1H-pyrazol-1-yl)-4-methylthiazole] displayed a melting point of 192 to 194 °C. Besides, the IC50 with MCF-7 [1] stood at 18.6 ± 0.19 µM.
`COc1ccc(C2CC(c3ccc(OC)c(OC)c3)=NN2c2nc(C)c(N=Nc3ccc(S(N)(=O)=O)cc3)s2)cc1` (centres unmarked) [Compound 4b, 4-((2-(3-(3,4-Dimethoxyphenyl)-5-(4-methoxyphenyl)-4,5-dihydro-1H-pyrazol-1-yl)-4-methylthiazol-5-yl)diazenyl)benzenesulfonamide] had a melting point of 200 to 202 °C. Further, the IC50 in the data set with MCF-7 [1] was found to be 17.12 ± 0.15 µM.
The compound `COc1ccc(C2=NN(c3nc(C)c(N=Nc4ccc(Cl)cc4)s3)C(c3ccc(Cl)cc3)C2)cc1OC` (centres unmarked) [Compound 4c, 2-(5-(4-Chlorophenyl)-3-(3,4-dimethoxyphenyl)-4,5-dihydro-1H-pyrazol-1-yl)-5-((4-chlorophenyl)diazenyl)-4-methylthiazole] returned a melting point of 210 to 212 °C. Moreover, the IC50 in the data set on MCF-7 [1] came to 18.7 ± 0.22 µM.
`COc1ccc(C2=NN(c3nc(C)c(N=Nc4ccc(S(N)(=O)=O)cc4)s3)C(c3ccc(Cl)cc3)C2)cc1OC` (centres unmarked) [Compound 4d, 4-((2-(5-(4-Chlorophenyl)-3-(3,4-dimethoxyphenyl)-4,5-dihydro-1H-pyrazol-1-yl)-4-methylthiazol-5-yl)diazenyl)benzenesulfonamide] gave a melting point of 208 to 210 °C. Further, the IC50 with MCF-7 [1] came to 17.1 ± 0.21 µM.
For `COc1ccc(C2CC(c3ccc(OC)c(OC)c3)=NN2C2=NC(=O)C(=NNc3ccc(Cl)cc3)S2)cc1` (centres unmarked) [Compound 5a, 5-(2-(4-Chlorophenyl)hydrazineylidene)-2-(3-(3,4-dimethoxyphenyl)-5-(4-methoxyphenyl)-4,5-dihydro-1H-pyrazol-1-yl)thiazol-4(5H)-one], the IC50 in the data set with MCF-7 [1] came out at 30.24 ± 0.24 µM.
As to `COc1ccc(C2CC(c3ccc(OC)c(OC)c3)=NN2C2=NC(=O)C(=NNc3ccc(S(N)(=O)=O)cc3)S2)cc1` (centres unmarked) [Compound 5b, 4-(2-(2-(3-(3,4-Dimethoxyphenyl)-5-(4-methoxyphenyl)-4,5-dihydro-1H-pyrazol-1-yl)-4-oxothiazol-5(4H)-ylidene)hydrazineyl)benzenesulfonamide], the melting point is 249 to 251 °C. Besides, in the data set on MCF-7 [1], the IC50 turned out to be 27.31 ± 0.26 µM.
`COc1ccc(C2=NN(C3=NC(=O)C(=NNc4ccc(Cl)cc4)S3)C(c3ccc(Cl)cc3)C2)cc1OC` (centres unmarked) [Compound 5c, 2-(5-(4-Chlorophenyl)-3-(3,4-dimethoxyphenyl)-4,5-dihydro-1H-pyrazol-1-yl)-5-(2-(4-chlorophenyl)hydrazineylidene)thiazol-4(5H)-one] gave a melting point of 278 to 280 °C. The IC50 in the data set with MCF-7 [1] is 28.03 ± 0.25 µM.
In the case of `COc1ccc(C2=NN(C3=NC(=O)C(=NNc4ccc(S(N)(=O)=O)cc4)S3)C(c3ccc(Cl)cc3)C2)cc1OC` (centres unmarked) [Compound 5d, 4-(2-(2-(5-(4-Chlorophenyl)-3-(3,4-dimethoxyphenyl)-4,5-dihydro-1H-pyrazol-1-yl)-4-oxothiazol-5(4H)-ylidene)hydrazineyl)benzenesulfonamide], the melting point lay within 292 to 294 °C. In addition, the IC50 in the data set with MCF-7 [1] is 25.7 ± 0.12 µM.
For `COc1ccc(C2CC(c3ccc(OC)c(OC)c3)=NN2C2=NC(=O)CS2)cc1` (centres unmarked) [Compound 6a, 2-(3-(3,4-Dimethoxyphenyl)-5-(4-methoxyphenyl)-4,5-dihydro-1H-pyrazol-1-yl)thiazol-4(5H)-one], in the data set on MCF-7 cells, the “Apoptosis Early” value is listed as 28.17%, the “Apoptosis Late” value is recorded as 17.98% and the Necrosis was found to be 4.88%. For the same compound, at EGFR Kinase, inhibition was half-maximal at 0.024 ± 0.005 µM (IC50). Also, in the data set on MCF-7 [2], the “DNA Content %G0-G1” value came to 69.82%, the “DNA Content %G2/M” value worked out at 8.12% and the “DNA Content %S” value amounted to 22.06%. This compound also showed a concentration for half-maximal inhibition (IC50) at HER2 Kinase of 0.047 ± 0.008 µM. The 50% inhibitory concentration (IC50) with MCF-7 [1] came out at 4.08 ± 0.08 µM. In the data set on MCF-10A, the half-inhibitory concentration (IC50) is ≥ 50 µM.
Take `COc1ccc(C2=NN(C3=NC(=O)CS3)C(c3ccc(Cl)cc3)C2)cc1OC` (centres unmarked) [Compound 6b, 2-(5-(4-Chlorophenyl)-3-(3,4-dimethoxyphenyl)-4,5-dihydro-1H-pyrazol-1-yl)thiazol-4(5H)-one]: the melting point fell in the range of 208 to 210 °C. At EGFR Kinase, this compound gave a concentration for half-maximal inhibition (IC50) of 0.026 ± 0.002 µM. On HER2 Kinase, this compound returned an IC50 of 0.081 ± 0.006 µM. The IC50 in the data set on MCF-7 [1] was determined as 5.64 ± 0.11 µM. For the same compound, in the data set on MCF-10A, the IC50 came out at 32.8 ± 1.27 µM.
`COc1ccc(C2CC(c3ccc(OC)c(OC)c3)=NN2C2=NC(=O)C(=Cc3ccccc3)S2)cc1` (centres unmarked) [Compound 7a, 5-Benzylidene-2-(3-(3,4-dimethoxyphenyl)-5-(4-methoxyphenyl)-4,5-dihydro-1H-pyrazol-1-yl)thiazol-4(5H)-one] came in with a melting point of 294 to 296 °C. For the same compound, the 50% inhibitory concentration (IC50) in the data set with MCF-7 [1] worked out at 17.79 ± 0.14 µM.
`COc1ccc(C=C2SC(N3N=C(c4ccc(OC)c(OC)c4)CC3c3ccc(OC)cc3)=NC2=O)cc1` (centres unmarked) [Compound 7b, 2-(3-(3,4-Dimethoxyphenyl)-5-(4-methoxyphenyl)-4,5-dihydro-1H-pyrazol-1-yl)-5-(4-methoxybenzylidene)thiazol-4(5H)-one]: the melting point is 245 to 247 °C. In the data set with MCF-7 [1], the IC50 was determined as 20 ± 0.22 µM.
On to `COc1ccc(C2=NN(C3=NC(=O)C(=Cc4ccccc4)S3)C(c3ccc(Cl)cc3)C2)cc1OC` (centres unmarked) [Compound 7c, 5-Benzylidene-2-(5-(4-chlorophenyl)-3-(3,4-dimethoxyphenyl)-4,5-dihydro-1H-pyrazol-1-yl)thiazol-4(5H)-one], for which the melting point fell in the range of 283 to 285 °C. The IC50 in the data set on MCF-7 [1] amounted to 21.2 ± 0.24 µM.
On to `COc1ccc(C=C2SC(N3N=C(c4ccc(OC)c(OC)c4)CC3c3ccc(Cl)cc3)=NC2=O)cc1` (centres unmarked) [Compound 7d, 2-(5-(4-Chlorophenyl)-3-(3,4-dimethoxyphenyl)-4,5-dihydro-1H-pyrazol-1-yl)-5-(4-methoxybenzylidene)thiazol-4(5H)-one], for which the melting point fell in the range of 250 to 252 °C. The IC50 with MCF-7 [1] came to 20.17 ± 0.19 µM.
As for `COc1ccc(C2CC(c3ccc(OC)c(OC)c3)=NN2C2=NC(=O)C(=C3C(=O)Nc4ccccc43)S2)cc1` (centres unmarked) [Compound 8a, 2-(3-(3,4-Dimethoxyphenyl)-5-(4-methoxyphenyl)-4,5-dihydro-1H-pyrazol-1-yl)-5-(2-oxoindolin-3-ylidene)thiazol-4(5H)-one], the melting point was > 300 °C. The half-inhibitory concentration (IC50) in the data set with MCF-7 [1] turned out to be 21.33 ± 0.21 µM.
Regarding `COc1ccc(C2=NN(C3=NC(=O)C(=C4C(=O)Nc5ccccc54)S3)C(c3ccc(Cl)cc3)C2)cc1OC` (centres unmarked) [Compound 8b, 2-(5-(4-Chlorophenyl)-3-(3,4-dimethoxyphenyl)-4,5-dihydro-1H-pyrazol-1-yl)-5-(2-oxoindolin-3-ylidene)thiazol-4(5H)-one], the melting point was > 300 °C. For the same compound, the half-inhibitory concentration (IC50) in the data set with MCF-7 [1] came to 19.5 ± 0.27 µM.
`COc1ccc(C2CC(c3ccc(OC)c(OC)c3)=NN2c2nc(-c3cc4ccccc4oc3=O)cs2)cc1` (centres unmarked) [Compound 10a, 3-(2-(3-(3,4-Dimethoxyphenyl)-5-(4-methoxyphenyl)-4,5-dihydro-1H-pyrazol-1-yl)thiazol-4-yl)-2H-chromen-2-one]: in the data set on MCF-7 cells, the “Apoptosis Early” value amounted to 19.22%, the “Apoptosis Late” value worked out at 15.91% and the Necrosis is given as 7.53%. Moreover, at EGFR Kinase, 0.005 ± 0.002 µM corresponded to half-maximal inhibition (IC50). Also, in the data set on MCF-7 [2], the “DNA Content %G0-G1” value came to 66.41%, the “DNA Content %G2/M” value is 4.04% and the “DNA Content %S” value is reported as 29.55%. For the same compound, the “cell accumulation at S phase relative to control” value in the data set with MCF-7 [2] (MCF-7, compound at its IC50, control 26.33%) is 1.12 folds. For the same compound, in the data set on MCF-7 [2] (MCF-7, compound at its IC50, control 62.59%), the “cell accumulation at G0-G1 relative to control” value is 1.06 folds. The same compound came in with a half-inhibitory concentration (IC50) at HER2 Kinase of 0.022 ± 0.005 µM. For the same compound, in the data set on MCF-7 [1], the IC50 worked out at 3.37 ± 0.13 µM. Also, the IC50 in the data set on MCF-10A was ≥ 50 µM.
`COc1ccc(C2=NN(c3nc(-c4cc5ccccc5oc4=O)cs3)C(c3ccc(Cl)cc3)C2)cc1OC` (centres unmarked) [Compound 10b, 3-(2-(5-(4-Chlorophenyl)-3-(3,4-dimethoxyphenyl)-4,5-dihydro-1H-pyrazol-1-yl)thiazol-4-yl)-2H-chromen-2-one] showed a melting point of 238 to 240 °C. On EGFR Kinase, this compound yielded an IC50 of 0.029 ± 0.004 µM. On HER2 Kinase, the IC50 was 0.065 ± 0.007 µM. Further, the IC50 in the data set with MCF-7 [1] is 3.54 ± 0.07 µM. In the data set on MCF-10A, this compound showed an IC50 of 27.1 ± 1.98 µM.
Turning to `Brc1ccc(C2=NN(c3nc(-c4ccc(Br)cc4)cs3)C(c3ccc4c(c3)OCO4)C2)cc1` (centres unmarked) [III], the IC50 in the data set on MCF-7 [3] was 0.09 µM; with HER2 it was 0.18 µM.
Turning to `COc1ccc(C2CC(c3ccc(Cl)cc3Cl)=NN2c2nc(C)c(C(=O)Nc3ccccc3)s2)cc1OC` (centres unmarked) [II], the IC50 is 2.92 µM in the data set with A549 and 0.032 µM in the data set with EGFR.
Regarding `COc1ccc(C2CC(c3ccc(OC)c(OC)c3)=NN2c2nc(-c3ccccc3)cs2)cc1` (centres unmarked) [IV], the half-inhibitory concentration (IC50) with MCF-7 [3] was 7.21 µM; with HER2 it was 0.013 µM; in the data set on EGFR it was 0.009 µM.
As for `Cc1ccc(C2=NN(c3nc(-c4ccc(Cl)cc4)cs3)C(c3ccc(F)cc3)C2)cc1C` (centres unmarked) [I], the IC50 in the data set with MCF-7 [3] is 0.07 µM; in the data set on EGFR, 0.06 µM.
Regarding `CS(=O)(=O)CCNCc1ccc(-c2ccc3ncnc(Nc4ccc(OCc5cccc(F)c5)c(Cl)c4)c3c2)o1` [Lapatinib, reference compound], the half-inhibitory concentration (IC50) in the data set with MCF-7 [1] is 5.88 ± 0.04 µM; with MCF-10A, ≥ 50 µM.
For `Cc1ccc(C2=NN(C3=NC(=O)/C(=C/c4ccc(O)cc4)S3)C(c3ccc(F)cc3)C2)cc1` (centres unmarked) [VI], the IC50 in the data set with T-47D cell line was 1.15 µM; with EGFR it was 0.083 µM.
For the compound `COc1ccc2nc(Cl)c(C3CC(c4ccc(C)cc4)=NN3c3nc(-c4ccc(F)cc4)cs3)cc2c1` (centres unmarked) [V], the IC50 is 0.227 µM in the data set with MCF-7 [3] and 0.031 µM in the data set with EGFR.
